Source: patent US4528393A, “Derivatives having expectorant activity, the procedure for their preparation and the pharmaceutical compositions which contain them” (Magis Farmaceutici S.R.L., priority 1983, dated 1985)

How the values were obtained:
[1] = Acute toxicity in the mouse (DL50, Litchfield and Wilcoxon method); format: in vivo; conditions: in vivo
Procedure: (§1) where R is as defined above, in the presence of an alkaline carbonate and of a catalyst, to obtain the corresponding formula (I) compound, as defined above, which, optionally, is salified. The new formula (I) compounds and their pharmaceutically acceptable salts, which form the object of this invention, have expectorant characteristics which are very useful for therapeutic applications. […] The peak level in the blood is reached 20-40 minutes after oral administration. This determines higher concentrations of active principle. With dogs, the half-life of the new derivatives in the blood is from 25-30 hours. It is also to be underlined that the new compounds are stable in both the stomach and the intestinal tract, hydrolizing after being absorbed. The complete reliability of the new compounds was determined by evaluating their acute toxicity. Acute toxicity was studies in the mouse, rat and guinea pig, comparing with ambroxol hydrochloride. The DL50 values were calculated by following the Litchfield and Wilcoxon method (Pharm. Exp. Therap. 1949, 96,99).

mouse = assay: as above; format: in vivo; conditions: os
Procedure: as §1

[2] = Acute toxicity in the rat (DL50, Litchfield and Wilcoxon method); conditions: in vivo
Procedure: as §1

[3] = Acute toxicity in the guinea pig (DL50, Litchfield and Wilcoxon method); conditions: in vivo
Procedure: as §1

| Compound | LD50 ([1]; ip) [mg/kg] | LD50 ([1]; iv) [mg/kg] | DL50 (mouse) [mg/kg] | LD50 ([2]; ip) [mg/kg] | LD50 ([2]; po, os) [mg/kg] | LD50 ([3]; ip) [mg/kg] | LD50 ([3]; po, os) [mg/kg] | LD50 ([1]; po, os) [mg/kg] |
| --- | --- | --- | --- | --- | --- | --- | --- | --- |
| Nc1c(Br)cc(Br)cc1CN[C@H]1CC[C@H](O)CC1 [Ambroxol Hydrochlorate, N-(2-amino-3,5-dibromobenzyl)-trans-4-amino-cyclohexanol, reference compound] | 268 | 138 | 2750 | 380 | 13400 | 280 | 1180 |  |
| COc1ccccc1OCC(=O)O[C@H]1CC[C@H](NCc2cc(Br)cc(Br)c2N)CC1 [E/6001, N-(2-amino-3,5-dibromobenzyl)-trans-4-amino-1-(guaiacolglycolyl)-cyclohexane] | 375 | 194 |  | 532 | 18700 | 390 | 1650 | 3850 |
| COc1cc(C)ccc1OCC(=O)O[C@H]1CC[C@H](NCc2cc(Br)cc(Br)c2N)CC1 [E/6002] | 390 | 201 |  | 550 | 19600 | 400 | 1700 | 4000 |
| Cc1cccc(OCC(=O)O[C@H]2CC[C@H](NCc3cc(Br)cc(Br)c3N)CC2)c1 [E/6003, N-(2-amino-3,5-dibromobenzyl)-trans-4-amino-1-(m-cresolglycolyl)cyclohexane] | 360 | 187 |  | 510 | 18000 | 380 | 1600 | 3700 |
| Cc1ccccc1OCC(=O)O[C@H]1CC[C@H](NCc2cc(Br)cc(Br)c2N)CC1 [E/6004] | 365 | 187 |  | 500 | 18000 | 375 | 1610 | 3700 |
| Cc1ccc(OCC(=O)O[C@H]2CC[C@H](NCc3cc(Br)cc(Br)c3N)CC2)cc1 [E/6005] | 360 | 180 |  | 500 | 17800 | 380 | 1600 | 3700 |
| Cc1ccc(C(C)C)c(OCC(=O)O[C@H]2CC[C@H](NCc3cc(Br)cc(Br)c3N)CC2)c1 [E/6006, N-(2-amino-3,5-dibromobenzyl)-trans-4-amino-1-(thymolglycolyl)cyclohexane] | 380 | 197 |  | 540 | 19000 | 400 | 1680 | 3900 |
| Cc1ccc(C(C)C)cc1OCC(=O)O[C@H]1CC[C@H](NCc2cc(Br)cc(Br)c2N)CC1 [E/6007, N-(2-amino-3,5-dibromobenzyl)-trans-4-amino-1-(carvacrolglycolyl)cyclohexane] | 390 | 190 |  | 530 | 18500 | 410 | 1700 | 3900 |
